Source: patent US20250026765A1, “SPIROHETEROCYCLE DERIVATIVE HAVING SEROTONIN RECEPTOR BINDING ACTIVITY” (Shionogi & Co., Ltd., priority 2021, published 2025)
Where two headings read alike, the source gives them in different places.

What was measured:
[1] = target: human recombinant 5-HT2A receptor (Homo sapiens (Human), UniProt P28223); assay: 5-HT2A receptor binding inhibition test ([3H]-Ketanserin); conditions: Jump-In HEK cell membrane, 25° C. 1.5 hours
Procedure: Test Example 1: 5-HT2A Receptor Binding Inhibition Test
(§1) (Each Experimental Condition)
Cell membrane: 15 μg of Jump-In HEK cell membrane (expressing human recombinant 5-HT2A receptor) per well
(§2) Assay buffer: Tris-HCl 50 mmol/L (pH 7.4) containing NaCl 120 mmol/L, MgCl2·6H2O 1 mmol/L, KCl 5 mmol/L, 0.1% BSA and CaCl2 2 mmol/L
Radioactive ligand: [^3H]-Ketanserin with a final concentration of around Kd value calculated by the following method
Non-specific ligand: Serotonin HCl with a final concentration of 500 μmol/L
(§3) The Kd value is calculated when the lot of cell membrane is changed. In advance, 0.5 μL of a 1 mmol/L compound for non-specific binding calculation dissolved in DMSO or DMSO is dispensed into a microplate, and the cell membrane is diluted with an Assay buffer. The radioactive ligand solution is serially diluted and the count is confirmed with a liquid scintillator. Assay buffer containing diluted cell membrane is dispensed into a microplate at 50 μL/well. Then, the radioactive ligand solution is dispensed into a microplate at 50 μL/well, and the plate is sealed. It is allowed to stand at room temperature (25° C.) for 1.5 hours. During this period, 50 mmol/L Tris-HCl (pH 7.4) is dispensed into a GF/B UniFilter plate at 50 μL/well and allowed to stand at 4° C. for 1 hour or longer. After that, filtration is performed with Cell harvester (PerkinElmer). The radioactive ligand solution is dispensed into an empty well of the GF/B UniFilter plate at 10 μL/well. After the GF/B UniFilter plate is dried at room temperature, MicroScinti 20 is dispensed into the GF/B UniFilter plate at 50 μL/well to seal the plate. The GF/B UniFilter plate is allowed to stand overnight at room temperature. The radioactivity of [^3H]-Ketanserin bound to the 5-HT2A receptor is measured using Microbeta2 (PerkinElmer) at a measurement time of 1 min/well. The Saturation curve is drawn from the measured value, and the Kd value is calculated from the slope of the Scatchard Plot.
(§4) (Binding Test of the Compound According to the Present Invention)
In advance, 0.5 μL of the compound solution dissolved in DMSO is dispensed into a microplate, and the cell membrane and the hot ligand are diluted with Assay buffer, respectively. Then, the Assay buffer containing the diluted cell membrane is dispensed into a microplate at 50 μL/well. Then, the radioactive ligand solution is dispensed into a microplate at 50 μL/well, and the plate is sealed. Then, it is allowed to stand at room temperature (25° C.) for 1.5 hours. During this period, 50 mmol/L Tris-HCl (pH 7.4) is dispensed into a GF/B UniFilter plate at 50 μL/well and allowed to stand at 4° C. for 1 hour or longer. After that, filtration is performed with Cell harvester (PerkinElmer). After the GF/B UniFilter plate is dried at room temperature, MicroScinti 20 is dispensed into the GF/B UniFilter plate at 50 μL/well to seal the plate. The GF/B UniFilter plate is allowed to stand overnight at room temperature. The radioactivity of [^3H]-Ketanserin bound to the 5-HT2A receptor is measured using Microbeta2 (PerkinElmer) at a measurement time of 1 min/well. The non-specific binding is calculated from the radioactivity of [^3H]-Ketanserin in the presence of 500 μmol/L Serotonin HCl which is the unlabeled ligand, and the total binding is calculated from the radioactivity of [^3H]-Ketanserin in the absence of the compound according to the present invention (Vehicle). Finally, the Ki value is calculated from the dose-response curve.
(§5) (The binding activity of the compound according to the present invention is calculated from the following binding inhibition rate (%).)
(§6) [formula] • a; mean cpm of non-specific binding • b; average cpm of total binding • c; cpm in the presence of the test compound

[2] = target: human recombinant 5-HT2C receptor (Homo sapiens (Human), UniProt P28335); assay: 5-HT2C receptor binding inhibition test ([3H]-Mesulergine); conditions: Jump-In HEK cell membrane, 37° C. 2 hours
human recombinant 5-HT2C receptor, sequence (P28335 33-458): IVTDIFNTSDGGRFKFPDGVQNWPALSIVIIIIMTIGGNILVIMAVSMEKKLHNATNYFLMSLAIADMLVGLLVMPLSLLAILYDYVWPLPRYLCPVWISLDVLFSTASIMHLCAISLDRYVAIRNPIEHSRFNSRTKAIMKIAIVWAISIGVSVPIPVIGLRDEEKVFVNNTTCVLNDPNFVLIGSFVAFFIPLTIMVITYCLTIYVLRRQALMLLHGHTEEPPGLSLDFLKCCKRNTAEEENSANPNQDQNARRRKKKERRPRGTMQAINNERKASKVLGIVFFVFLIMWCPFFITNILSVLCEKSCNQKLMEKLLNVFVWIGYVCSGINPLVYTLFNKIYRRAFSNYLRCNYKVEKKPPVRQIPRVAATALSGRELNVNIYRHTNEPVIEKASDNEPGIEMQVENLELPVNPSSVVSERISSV
Procedure: Test Example 2: 5-HT2C Receptor Binding Inhibition Test
as §1
Cell membrane: 0.5 μg of Jump-In HEK cell membrane (expressing human recombinant 5-HT2C receptor) per well
as §2
Radioactive ligand: [^3H]-Mesulergine with a final concentration of around Kd value calculated by the following method
Non-specific ligand: Serotonin HCl with a final concentration of […]
as §3, with “37° C.” for “room temperature (25° C.)”, “2” for “1.5”, “[^3H]-Mesulergine” for “[^3H]-Ketanserin”, “5-HT2C” for “5-HT2A”
as §4
In advance, 0.5 μL of the compound solution dissolved in DMSO is dispensed into a microplate, and the cell membrane and the hot ligand are diluted with Assay buffer, respectively. Then, the Assay buffer containing the diluted cell membrane is dispensed into a microplate at 50 μL/well. Then, the radioactive ligand solution is dispensed into a microplate at 50 μL/well, and the plate is sealed. Then, it is allowed to stand at 37° C. for 2 hours. During this period, 50 mmol/L Tris-HCl (pH 7.4) is dispensed into a GF/B UniFilter plate at 50 μL/well and allowed to stand at 4° C. for 1 hour or longer. After that, filtration is performed with Cell harvester (PerkinElmer). After the GF/B UniFilter plate is dried at room temperature, MicroScinti 20 is dispensed into the GF/B UniFilter plate at 50 μL/well, and the plate is sealed. The GF/B UniFilter plate is allowed to stand overnight at room temperature. The radioactivity of [^3H]-Mesulergine bound to the 5-HT2C receptor is measured using Microbeta2 (PerkinElmer) at a measurement time of 1 min/well. The non-specific binding is calculated from the radioactivity of […] in the presence of 500 μmol/L Serotonin HCl which is the unlabeled ligand, and the total binding is calculated from the radioactivity of [^3H]-Mesulergine in the absence of the compound according to the present invention (Vehicle). Finally, the Ki value is calculated from the dose-response curve.
as §5, §6

human recombinant 5-HT2A receptor, sequence (P28223 whole entry): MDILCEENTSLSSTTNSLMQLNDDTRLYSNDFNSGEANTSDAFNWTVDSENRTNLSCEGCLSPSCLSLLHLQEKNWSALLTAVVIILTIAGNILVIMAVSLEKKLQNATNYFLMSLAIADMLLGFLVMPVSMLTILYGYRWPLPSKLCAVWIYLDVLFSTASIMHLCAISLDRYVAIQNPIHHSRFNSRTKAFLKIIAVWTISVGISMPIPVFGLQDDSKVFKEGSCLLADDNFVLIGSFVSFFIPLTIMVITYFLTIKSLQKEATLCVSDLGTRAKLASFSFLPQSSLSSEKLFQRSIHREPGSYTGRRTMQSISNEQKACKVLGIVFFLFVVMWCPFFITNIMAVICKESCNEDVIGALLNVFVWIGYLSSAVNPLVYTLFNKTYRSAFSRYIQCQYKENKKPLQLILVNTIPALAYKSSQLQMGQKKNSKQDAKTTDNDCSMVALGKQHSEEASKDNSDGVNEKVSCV

SMILES	Ki ([1]; read-out: h-5-HT2A Ki)	Ki ([2]; read-out: h-5-HT2C Ki)	Ki ([1]; read-out: human serotonin 5-HT2A receptor binding activity Ki)	Ki ([2]; read-out: human serotonin 5-HT2C receptor binding activity Ki)
CC(C)COc1ccc(CN(Cc2ccc(F)cc2)C2=NC3(CCN(C)CC3)CO2)cc1 [Compound I-020]	10 to 100 nM	100 to 500 nM	–	–
Cc1nc(CN(Cc2ccc(OCC(C)C)cc2)C2=NOC3(CCN(C)CC3)N2)cs1 [Compound I-017]	< 10 nM	< 10 nM	–	–
Cc1ccc2cc(CN(Cc3coc(C)n3)C3=NOC4(CCN(C)CC4)N3)sc2c1 [Compound I-101]	< 10 nM	< 10 nM	–	–
CCCOc1ccc(CN(Cc2ccn(C)n2)C2=NOC3(CCN(C)CC3)N2)cc1 [Compound I-014]	< 10 nM	10 to 100 nM	–	–
CCCCc1ccc(CN(Cc2coc(C)n2)C2=NOC3(CCN(C)CC3)N2)cc1 [Compound I-077]	< 10 nM	< 10 nM	–	–
Cc1nc(CN(Cc2ccc3ccccc3c2)C2=NOC3(CCN(C)CC3)N2)co1 [Compound I-097]	< 10 nM	< 10 nM	–	–
Cc1ncc(CN(Cc2ccc(OCC(C)C)cc2)C2=NOC3(CCN(C)CC3)N2)o1 [Compound I-053]	< 10 nM	< 10 nM	–	–
Cc1cc(CN(Cc2ccc(OCC(C)C)cc2)C2=NOC3(CCN(C)CC3)N2)co1 [Compound I-070]	< 10 nM	< 10 nM	–	–
CN1CCC2(CC1)NC(N(Cc1ccc(OCC(F)(F)C(F)F)cc1)Cc1ccn(C)n1)=NO2 [Compound I-010]	< 10 nM	< 10 nM	–	–
CCCCOc1ccc(CN(Cc2cnn(C)n2)C2=NOC3(CCN(C)CC3)N2)cc1F [Compound I-111]	< 10 nM	< 10 nM	–	–
CC(C)COc1ccc(CN(Cc2ccc(F)cc2)C2=NC(=O)C3(CCN(C)CC3)N2)cc1 [Compound I-021]	< 10 nM	10 to 100 nM	–	–
CC(C)COc1ccc(C[C@H]2C(=O)NC3(CCN(C)CC3)N2Cc2ccc(F)cc2)cc1 [Compound I-002]	–	–	11.1 nM	27.1 nM
Cc1nc(CN(Cc2ccc(OCC(C)(F)F)cc2)C2=NOC3(CCN(C)CC3)N2)co1 [Compound I-065]	< 10 nM	< 10 nM	–	–
CC(C)CNc1ccc(CN(Cc2ccn(C)n2)C2=NOC3(CCN(C)CC3)N2)cc1 [Compound I-023]	10 to 100 nM	10 to 100 nM	–	–
CC(C)COc1ccc(CN(Cc2ccccn2)C2=NOC3(CCN(C)CC3)N2)cc1 [Compound I-012]	< 10 nM	10 to 100 nM	–	–
Cc1nc(CN(Cc2ccc(OCC3CC(F)(F)C3)cc2)C2=NOC3(CCN(C)CC3)N2)co1 [Compound I-084]	< 10 nM	< 10 nM	–	–
Cc1nc(CN(Cc2ccc(OCC(F)F)cc2)C2=NOC3(CCN(C)CC3)N2)co1 [Compound I-066]	< 10 nM	< 10 nM	–	–
CC(C)COc1ccc(CN(Cc2ccn(C)n2)C2=NOC3(CCNCC3)N2)cc1 [Compound I-036]	< 10 nM	< 10 nM	–	–
Cc1nc(CN(Cc2ccc(OCC(F)(F)C(F)F)cc2)C2=NOC3(CCN(C)CC3)N2)co1 [Compound I-064]	< 10 nM	< 10 nM	–	–

The next lines start with the values.

Ki ([1]; read-out: h-5-HT2A Ki)	Ki ([2]; read-out: h-5-HT2C Ki)	Ki ([1]; read-out: human serotonin 5-HT2A receptor binding activity Ki)	Ki ([2]; read-out: human serotonin 5-HT2C receptor binding activity Ki)	SMILES
10 to 100 nM	10 to 100 nM	–	–	Cc1cnc(CN(Cc2ccc(OCC(C)C)cc2)C2=NOC3(CCN(C)CC3)N2)o1 [Compound I-032]
100 to 500 nM	100 to 500 nM	–	–	Cc1nc(CN(Cc2ccc(OCC(C)C)cc2)C2=NC3(CCNCC3)ON2C)co1 [Compound I-051]
< 10 nM	10 to 100 nM	–	–	CC(C)COc1ccc(CN(Cc2ccco2)C2=NC(=O)C3(CCN(C)CC3)N2)cc1 [Compound I-063]
100 to 500 nM	100 to 500 nM	–	–	Cc1nc(CN(Cc2ccc3c(c2)nnn3C)C2=NOC3(CCN(C)CC3)N2)co1 [Compound I-093]
10 to 100 nM	100 to 500 nM	–	–	Cc1cc(CN(Cc2ccc(OCC(C)C)cc2)C2=NOC3(CCN(C)CC3)N2)on1 [Compound I-076]
10 to 100 nM	100 to 500 nM	–	–	Cc1nc(CN(Cc2cn3ccccc3n2)C2=NOC3(CCN(C)CC3)N2)co1 [Compound I-091]
10 to 100 nM	< 10 nM	–	–	Cn1ccc(CN2C(Cc3ccc(OC4CC4)cc3)=NOC23CCNCC32CC2)n1 (racemic) [Compound I-038]
< 10 nM	10 to 100 nM	–	–	CC(C)COc1ccc(CN(Cc2ccc(F)cc2)C2=NOC3(CCN(C)CC3)N2)cc1 [Compound I-055]
10 to 100 nM	100 to 500 nM	–	–	Cc1cc(CN(Cc2ccc(OCC(C)C)cc2)C2=NC(=O)C3(CCN(C)CC3)N2)nn1C [Compound I-058]
10 to 100 nM	10 to 100 nM	–	–	CC(C)COc1ccc(CN(Cc2ccc(F)cn2)C2=NC(=O)C3(CCN(C)CC34CC4)N2)cc1 (racemic) [Compound I-042]
< 10 nM	< 10 nM	–	–	CN1CCC2(ON=C(Cc3ccc(OC4CC4)cc3)N2Cc2ccn(C)n2)C2(CC2)C1 (racemic) [Compound I-041]
10 to 100 nM	10 to 100 nM	–	–	COc1ccc(CN(Cc2coc(C)n2)C2=NOC3(CCN(C)CC3)N2)cn1 [Compound I-120]
10 to 100 nM	10 to 100 nM	–	–	CC(C)COc1ccc(CN(Cc2ccn(C)n2)C2=NC(=O)C3(CCN(C)CC34CC4)N2)cc1 (racemic) [Compound I-043]
10 to 100 nM	10 to 100 nM	–	–	Cc1nc(CN(Cc2nc3ccccc3o2)C2=NOC3(CCN(C)CC3)N2)co1 [Compound I-094]
